Measurements taken from patent US12459951B2, “Compounds that interact with RAS superfamily proteins for treatment of cancers, inflammatory diseases, rasopathies, and fibrotic disease” (SHY Therapeutics, LLC, priority 2022, dated 2025).
Counter-ions that a name gives are not always drawn.

Tests used:
[1] = tested on: Smad2/Smad3 phosphorylation; experiment: Phospho-Smad2/3 Inhibition Assay (western blot), Panc-1; format: cell-based, human; details: at 10 μM, Panc-1 pancreatic cancer cell line; starred symbols = activation
Procedure: Protocol for Phospho-Smad2/3 Inhibition Assay
This assay is referred to as the “Phospho-Smad2/3 Inhibition Assay” throughout this application.
Cell lines: Human tumor-derived pancreatic cancer cell line Panc-1 (expressing KRas G12D mutant) and mouse muscle myoblast C2C12 were purchased from American Type Culture Collection and grown in complete DMEM-High Glucose, supplemented with penicillin (100 U/mL), streptomycin (100 μg/mL), and 10% heat-inactivated FBS at 37° C. in a humidified incubator with 5% CO2.
Method: Cells were plated at 350000 cells/well density in a 12-well plate, allowed 3 hours to adhere to the plate, then starved in the appropriate medium in the presence of 0.5% FBS overnight. The small molecules to be tested were added to the cells in the final concentration of 10 μM in the presence of 0.3% DMSO for 3 hours incubation at 37° C. For IC50 value determination, serial dilutions of compounds were added to cells under the same conditions. Next, Panc-1 cells were stimulated with 10 ng/ml TGF-b1 for 1 hour, and C2C12 cells were stimulated with 10 ng/ml TGF-b1 for 20 minutes (recombinant human TGF-b1, R&D Systems). After stimulation cells were lysed with lysis buffer containing 1% Triton X-100, EDTA, and Halt™ Protease & Phosphatase Inhibitor Cocktail (Thermo Scientific). Protein concentration was assessed by BCA protein assay (Thermo Scientific). Phosphorylation level of Smad2/Smad3 was determined by western blot.
Western blot protocol: Equal amounts of protein (15-50 μg) were separated by SDS-PAGE and transferred to nitrocellulose membranes (Invitrogen by Thermo Fisher Scientific). The membrane was stained with Ponceau S Stain (Boston BioProducts) to verify uniform protein loading. Membranes were blocked with 10% milk and phosphorylation levels of Smad2/Smad3 were assessed by incubating overnight at 4° C. with the following antibodies: Phospho-Smad2 (Ser465/467) and Phosph-Smad3 (Ser423/425), both from Cell Signaling Technology. Then the membranes were incubated with HRP-conjugated secondary antibody (Jackson Immunoresearch, West Grove, PA). Bands were incubated in Amersham ECL Prime Western Blotting Detection Reagent (GE Healthcare) and visualized using the ChemiDoc MP imaging system (Bio-Rad).

IL6 = experiment: IL-6 Quantification Assay (ELISA), LPS-stimulated RAW 264.7; format: cell-based; design: inhibition: dose or concentration left out as unconfirmed; details: Mus musculus, RAW264.7; read-out: IL-6: % inh.
TNF-alpha = TNF-alpha Quantification Assay (ELISA), LPS-stimulated RAW 264.7; format: cell-based; details: Mus musculus, RAW264.7; at 10 μM; read-out: TNFα: % inh.
KRas G12D mutant = experiment: Ras GTP Binding Domain Inhibition Assay (Ras Superfamily Assay); details: 20 μM compound; for KRas G12D mutant + SOS: % inh.: with SOS; for KRas G12D mutant: % inh.: without SOS
Excerpt: (§1) Biological Example 3: Ras GTP Binding Domain Inhibition Assay
(§2) The assays described in Example 3 are collectively referred to as the “Ras Superfamily Assay” throughout this application.
(§3) A Ras Superfamily Activity Assay (as disclosed in International Application No. PCT/US2018/038613, filed Jun. 20, 2018, which is incorporated by reference in its entirety) was used as a specific assay to evaluate compounds against the following for the following Ras Superfamily proteins: KRas wild type, KRas Q61H mutant, KRas G12C mutant, KRas G12D mutant, Rac-1, and Rho-A.
(§4) • 25 mM Tris-HCl, pH 7.4 • 27 mM KCl • 137 mM NaCl • 1 mM MgCl2 • 1 mM DTT Buffer-II: • 50 mM Tris-HCl, pH 7.0 • 1 mM MgCl2 • 1 mM DTT
(§5) The small GTPases proteins: KRas wild type. KRas Q61H mutant, KRas G12C mutant, KRas G12D mutants, Rac-1, and Rho-A were expressed as His-tagged proteins. In addition, the Guanosine nucleotide Exchange Factor (GEF) Sos protein (residues 556-1049) was expressed as a His-tagged protein. In cells, the guanine nucleotide exchange factor Sos protein promotes activation of Ras proteins by stimulating an exchange of GDP for GTP. The inclusion of Sos to the Ras GTP binding domain inhibition assay may be considered as an alternative representation of physiological cellular conditions for evaluating the inhibitory activity of some of the tested small molecules.
(§6) For the assay, all purified small GTPases proteins were diluted in Buffer-I or Buffer-II to a final concentration of 10-30 μg/mL. 200 μL of each diluted protein was added to a nickel-coated 96-well plate and incubated overnight at 4° C. Then the protein solution was discarded and 200 μL of Buffer-I or Buffer-II was added to each well in the presence of 1% DMSO. Compounds to be tested were added to the protein-coated wells at final concentration of 20 μM, and incubated for 3 hours at room temperature with and without 10-30 μg/mL of Sos added to the final hour of the incubation. When performing IC50 measurements a serial dilution of all tested concentrations was added. Then Cy3-GTP or Cy5-GTP was added to each well to a final concentration of 100 nM. The labeled GTP was incubated for 45 minutes at room temperature. Following GTP incubation, wells were washed 3× in Buffer-I or Buffer-II and 200 μL of Buffer-I or Buffer-II was added to each well. Following washes, the amount of bound labeled-GTP was measured using a SpectraMax M3 (Molecular Devices).

KRas wild type = experiment: as above; details: 20 μM compound; for KRas wild type + SOS: % inh.: with SOS; for KRas wild type: % inh.: without SOS
Excerpt: as §1, §2, §3, §4, §5, §6

Rac-1 = target: T1, Rac-1 (Homo sapiens, UniProt P63000); experiment: as above; details: read-out: Rac-1: % inh.
T1 construct: made in house
Excerpt: as §1, §2, §3, §4, §5, §6

## Cc1c(-c2ccn(C)n2)cn2nc(-c3nccn3C)nc(Nc3nccn3C)c12 [Compound 106, 5-Methyl-N,2-bis(1-methyl-1H-imidazol-2-yl)-6-(1-methyl-1H-pyrazol-3-yl)pyrrolo[2,1-f][1,2,4]triazin-4-amine]
[1]
  % inh of Smad2/3 phosphorylation in Panc-1: D* (D* = 76-100% activation)
IL6
  inhibition: 50 to 74%
TNF-alpha
  inhibition at 10 µM: 0%
KRas G12D mutant
  KRas G12D mutant + SOS: % inh.: A (A = 1-25% inhibition)
  KRas G12D mutant: % inh.: B (B = 26-49% inhibition)
KRas wild type
  KRas wild type + SOS: % inh.: 0 (0 = 0% inhibition)
  KRas wild type: % inh.: A (A = 1-25% inhibition)
Rac-1
  inhibition at 20 µM: 26 to 49%

## COc1cnc(Nc2nc(-c3nccn3C)nn3cc(-c4ccn(C)n4)c(C)c23)nc1.Cl [Compound 117, N-(5-Methoxypyrimidin-2-yl)-5-methyl-2-(1-methyl-1H-imidazol-2-yl)-6-(1-methyl-1H-pyrazol-3-yl)pyrrolo[2,1-f][1,2,4]triazin-4-amine hydrochloride salt]
[1]
  % inh of Smad2/3 phosphorylation in Panc-1: A (A = 1-25% inhibition)
IL6
  inhibition: 1 to 24%
TNF-alpha
  inhibition at 10 µM: 1 to 24%
KRas G12D mutant
  KRas G12D mutant + SOS: % inh.: A (A = 1-25% inhibition)
  KRas G12D mutant: % inh.: A (A = 1-25% inhibition)
KRas wild type
  KRas wild type + SOS: % inh.: A (A = 1-25% inhibition)
  KRas wild type: % inh.: A (A = 1-25% inhibition)
Rac-1
  inhibition at 20 µM: 1 to 25%

## Cc1c(-c2ccn(C3CC3)n2)cn2nc(-c3nccn3C)nc(Nc3cc(OCCO)ccn3)c12 [Compound 146, 2-((2-((6-(1-Cyclopropyl-1H-pyrazol-3-yl)-5-methyl-2-(1-methyl-1H-imidazol-2-yl)pyrrolo[2,1-f][1,2,4]triazin-4-yl)amino)pyridin-4-yl)oxy)ethan-1-ol]
[1]
  % inh of Smad2/3 phosphorylation in Panc-1: C (C = 46-75% inhibition)
IL6
  inhibition: 0%
TNF-alpha
  inhibition at 10 µM: 1 to 24%
KRas G12D mutant
  KRas G12D mutant + SOS: % inh.: D (D = 76-100% inhibition)
  KRas G12D mutant: % inh.: D (D = 76-100% inhibition)
KRas wild type
  KRas wild type + SOS: % inh.: D (D = 76-100% inhibition)
  KRas wild type: % inh.: D (D = 76-100% inhibition)
Rac-1
  inhibition at 20 µM: 76 to 100%

## COc1cc(Nc2nc(-c3nccn3C)nn3cc(-c4ccn(C(F)F)n4)c(C)c23)ncn1 [Compound 98, 6-(1-(Difluoromethyl)-1H-pyrazol-3-yl)-N-(6-methoxypyrimidin-4-yl)-5-methyl-2-(1-methyl-1H-imidazol-2-yl)pyrrolo[2,1-f][1,2,4]triazin-4-amine]
[1]
  % inh of Smad2/3 phosphorylation in Panc-1: D (D = 76-100% inhibition)
IL6
  inhibition: 1 to 24%
TNF-alpha
  inhibition at 10 µM: 0%
KRas G12D mutant
  KRas G12D mutant + SOS: % inh.: C (C = 50-75% inhibition)
  KRas G12D mutant: % inh.: C (C = 50-75% inhibition)
KRas wild type
  KRas wild type + SOS: % inh.: A (A = 1-25% inhibition)
  KRas wild type: % inh.: C (C = 50-75% inhibition)
Rac-1
  inhibition at 20 µM: 50 to 75%

## CO[C@H]1C[C@H](Nc2nc(-c3nccn3C)nn3cc(-c4ccn(C)n4)c(C)c23)C1 [Compound 103, N-((1r,3r)-3-Methoxycyclobutyl)-5-methyl-2-(1-methyl-1H-imidazol-2-yl)-6-(1-methyl-1H-pyrazol-3-yl)pyrrolo[2,1-f][1,2,4]triazin-4-amine hydrochloride salt]
[1]
  % inh of Smad2/3 phosphorylation in Panc-1: C* (C* = 46-75% activation)
IL6
  inhibition: 0%
TNF-alpha
  inhibition at 10 µM: 0%
KRas G12D mutant
  KRas G12D mutant + SOS: % inh.: B (B = 26-49% inhibition)
  KRas G12D mutant: % inh.: B (B = 26-49% inhibition)
KRas wild type
  KRas wild type + SOS: % inh.: A (A = 1-25% inhibition)
  KRas wild type: % inh.: B (B = 26-49% inhibition)
Rac-1
  inhibition at 20 µM: 1 to 25%

## Cc1c(-c2ccn(C(C)C)n2)cn2nc(-c3nccn3C)nc(Nc3nccc(OCCN(C)C)n3)c12 [Compound 96, N-(4-(2-(Dimethylamino)ethoxy)pyrimidin-2-yl)-6-(1-isopropyl-1H-pyrazol-3-yl)-5-methyl-2-(1-methyl-1H-imidazol-2-yl)pyrrolo[2,1-f][1,2,4]triazin-4-amine]
[1]
  % inh of Smad2/3 phosphorylation in Panc-1: D (D = 76-100% inhibition)
IL6
  inhibition: 50 to 74%
TNF-alpha
  inhibition at 10 µM: 0%
KRas G12D mutant
  KRas G12D mutant + SOS: % inh.: D (D = 76-100% inhibition)
  KRas G12D mutant: % inh.: D (D = 76-100% inhibition)
KRas wild type
  KRas wild type + SOS: % inh.: D (D = 76-100% inhibition)
  KRas wild type: % inh.: D (D = 76-100% inhibition)
Rac-1
  inhibition at 20 µM: 76 to 100%

## COc1cc(Nc2nc(-c3nccn3C)nn3cc(-c4ccccn4)c(C)c23)ncn1 [Compound 94, N-(6-Methoxypyrimidin-4-yl)-5-methyl-2-(1-methyl-1H-imidazol-2-yl)-6-(pyridin-2-yl)pyrrolo[2,1-f][1,2,4]triazin-4-amine]
[1]
  % inh of Smad2/3 phosphorylation in Panc-1: B* (B* = 26-45% activation)
IL6
  inhibition: 50 to 74%
TNF-alpha
  inhibition at 10 µM: 25 to 49%
KRas G12D mutant
  KRas G12D mutant + SOS: % inh.: B (B = 26-49% inhibition)
  KRas G12D mutant: % inh.: C (C = 50-75% inhibition)
KRas wild type
  KRas wild type + SOS: % inh.: B (B = 26-49% inhibition)
  KRas wild type: % inh.: C (C = 50-75% inhibition)
Rac-1
  inhibition at 20 µM: 50 to 75%

## Cc1c(-c2ccn(C(C)C)n2)cn2nc(-c3nccn3C)nc(Nc3nccc(OCCO)n3)c12 [Compound 121, 2-((2-((6-(1-Isopropyl-1H-pyrazol-3-yl)-5-methyl-2-(1-methyl-1H-imidazol-2-yl)pyrrolo[2,1-f][1,2,4]triazin-4-yl)amino)pyrimidin-4-yl)oxy)ethan-1-ol]
[1]
  % inh of Smad2/3 phosphorylation in Panc-1: A (A = 1-25% inhibition)
IL6
  inhibition: 50 to 74%
TNF-alpha
  inhibition at 10 µM: 25 to 49%
KRas G12D mutant
  KRas G12D mutant + SOS: % inh.: D (D = 76-100% inhibition)
  KRas G12D mutant: % inh.: D (D = 76-100% inhibition)
KRas wild type
  KRas wild type + SOS: % inh.: C (C = 50-75% inhibition)
  KRas wild type: % inh.: D (D = 76-100% inhibition)
Rac-1
  inhibition at 20 µM: 76 to 100%

## Cc1c(-c2ccn(C)n2)cn2nc(-c3nccn3C)nc(Nc3n[nH]c(C4CC4)n3)c12 [Compound 113, N-(5-Cyclopropyl-1H-1,2,4-triazol-3-yl)-5-methyl-2-(1-methyl-1H-imidazol-2-yl)-6-(1-methyl-1H-pyrazol-3-yl)pyrrolo[2,1-f][1,2,4]triazin-4-amine]
[1]
  % inh of Smad2/3 phosphorylation in Panc-1: D* (D* = 76-100% activation)
IL6
  inhibition: 75 to 100%
TNF-alpha
  inhibition at 10 µM: 25 to 49%
KRas G12D mutant
  KRas G12D mutant + SOS: % inh.: D (D = 76-100% inhibition)
  KRas G12D mutant: % inh.: D (D = 76-100% inhibition)
KRas wild type
  KRas wild type + SOS: % inh.: D (D = 76-100% inhibition)
  KRas wild type: % inh.: C (C = 50-75% inhibition)
Rac-1
  inhibition at 20 µM: 76 to 100%
